Data on 29 compounds can be found in US5120738A, “Pantothenic acid derivatives” (Fujirebio Inc., priority 1990, dated 1992).

The first test addresses T1, acyl CoA-cholesterol-acyltransferase (ACAT) (Rattus norvegicus, UniProt Q7TQM4).
T1 construct: a microsome fraction prepared from a rat liver; from tissue; host or cells: rat liver microsome fraction
T1 sequence (Q7TQM4 1-524): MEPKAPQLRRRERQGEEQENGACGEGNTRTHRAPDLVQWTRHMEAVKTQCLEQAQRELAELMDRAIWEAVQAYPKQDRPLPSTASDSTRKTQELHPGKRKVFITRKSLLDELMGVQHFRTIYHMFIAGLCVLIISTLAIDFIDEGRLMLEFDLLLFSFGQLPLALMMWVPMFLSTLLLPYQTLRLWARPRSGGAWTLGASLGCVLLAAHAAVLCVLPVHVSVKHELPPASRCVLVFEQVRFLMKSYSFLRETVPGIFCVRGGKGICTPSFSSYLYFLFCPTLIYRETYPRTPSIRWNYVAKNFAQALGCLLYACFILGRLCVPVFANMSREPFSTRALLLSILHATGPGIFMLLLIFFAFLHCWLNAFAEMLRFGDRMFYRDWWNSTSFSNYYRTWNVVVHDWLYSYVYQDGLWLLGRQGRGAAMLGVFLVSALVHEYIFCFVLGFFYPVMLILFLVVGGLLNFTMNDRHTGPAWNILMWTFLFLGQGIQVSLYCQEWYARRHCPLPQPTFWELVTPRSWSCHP
Put plainly: ACAT inhibition test (cholesteryl oleate formed from [1-14C]oleoylCoA, rat liver microsome fraction). Conditions: 10^-6 M test drug, 37° C., 4 minutes, relative to control without test compound. Type of test: biochemical. As to the method: ACAT inhibition tests were carried out by measuring cholesteryl oleate produced from [1-^14 C]oleoylCoA and endocellular cholesterol similarly to the method of Helgerud et al. [cf.
Thereafter, 4.2 ml of methanol and 8.3 ml of chloroform were added to the reaction mixture to stop the reaction. Then, 2.5 ml of water was added and after shaking the mixture sufficiently a chloroform layer was separated. After concentrating it, the chloroform layer was subjected to thin layer chromatography. The cholesteryl oleate formed was separated and its radioactivity was measured by a liquid scientilaltion counter.
On the other hand, the same tests as above were repeated without using test compounds. The radioactivity of the control thus obtained was used as a standard for calculating the ACAT inhibiting activity of each test compound.
For orientation: Liver microsomes are a subcellular fraction often used to study metabolism.
One may read the inhibition as the share of the control response that was lost under treatment. Consider `CCCCCCCC/C=C\CCCCCCCC(=O)NC1CCCN(C(=O)CCNC(=O)C(O)C(C)(C)CO)C1` (stereo not drawn) [Example 169], for which the inhibition at 1 µM is 58.3%.
Still for that read-out and setting: as for `CCCCCCCC/C=C\CCCCCCCC(=O)NC1CCCN(C(=O)CCNC(=O)C2OC(C)(C)OCC2(C)C)C1` (stereo not drawn) [Example 168], the figure is 75.7%; as for `CC/C=C\C/C=C\C/C=C\CCCCCCCC(=O)Nc1ccccc1NC(=O)CCNC(=O)C1OC(C)(C)OCC1(C)C` (stereo not drawn) [Example 5], 56%; as for `CCCCCCCCCCC(C)C(=O)N1CCN(C(=O)CCNC(=O)C2OC(C)(C)OCC2(C)C)CC1` (stereo not drawn) [Example 199], 53.7%.
Same read-out and setting: as for `CCCCCCCC/C=C\CCCCCCCC(=O)N1CCN(C(=O)CCNC(=O)C(O)C(C)(C)CO)CC1` (stereo not drawn) [Example 193], the figure is 18.9%.
The same measure, in the same setting: as for `CCCCCCCC/C=C\CCCCCCCC(=O)NC[C@@H]1CCCN1C(=O)CCNC(=O)C(O)C(C)(C)CO` (stereo partly drawn) [Example 166], the figure is 65.7%; as for `CCCCC/C=C\C/C=C\CCCCCCCC(=O)Nc1ccccc1NC(=O)CCNC(=O)C1OC(C)(C)OCC1(C)C` (stereo not drawn) [Example 4, N-2-(Linoleoylamino)phenyl]-3-[[N-(2,2,5,5-tetramethyl-1,3-dioxane-4-carbonyl)amino]propanamide], 79.8%.
The compound `CCCCCCCC/C=C\CCCCCCCC(=O)NC[C@H]1CCCN1C(=O)CCNC(=O)C1OC(C)(C)OCC1(C)C` (stereo partly drawn) [Example 167] gave an inhibition at 1 µM of 64%.
Still for that read-out and setting: as for `CCCCCCCC/C=C\CCCCCCCC(=O)Nc1ccccc1OC(=O)CCNC(=O)C1OC(C)(C)OCC1(C)C` (stereo not drawn) [Example 15, 2-(Oleoylamino)phenyl 3-[N-(2,2,5,5-tetramethyl-1,3-dioxane-4-carbonyl)amino]propionate], the figure is 79.6%; as for `CCCCCCCCC=CCCCCCCCNC(=O)N1CCN(C(=O)CCNC(=O)C2OC(C)(C)OCC2(C)C)CC1` (stereo not drawn) [Example 198], 84.3%; as for `CCCCCCCC/C=C\CCCCCCCC(=O)N1CCCC(NC(=O)CCNC(=O)C2OC(C)(C)OCC2(C)C)C1` (single isomer, unassigned) [Example 171], 61.1%.
`CCCCC/C=C\C/C=C\CCCCCCCC(=O)Nc1cccc(NC(=O)CCNC(=O)C2OC(C)(C)OCC2(C)C)c1` (stereo not drawn) [Example 9, [N-3-(Linoleylamino)phenyl]-3-[N-(2,2,5,5-tetramethyl-1,3-dioxane-4-carbonyl)amino]propanamide] gave an inhibition at 1 µM of 51.8%.
The same measure, in the same setting: as for `CCCCCCCC/C=C\CCCCCCCC(=O)N1CCCN(C(=O)CCNC(=O)C(O)C(C)(C)CO)CC1` (stereo not drawn) [Example 195], the figure is 48.7%; as for `CCCCCCCC/C=C\CCCCCCCC(=O)Nc1ccccc1NC(=O)CCNC(=O)C(OC(C)=O)C(C)(C)COC(C)=O` (stereo not drawn) [Example 2, N-[2-(Oleoylamino)phenyl]-3-[N-(2,4-diacetoxy-3,3-dimethyl-1-oxobutyl)amino]propanamide], 64.8%; as for `CCCCCCCC/C=C\CCCCCCCC(=O)N1CCCN(C(=O)CCNC(=O)C(OC(C)=O)C(C)(C)COC(C)=O)CC1` (stereo not drawn) [Example 194, 1-Oleoyl-4-(1-oxo-3-N-(1-oxo-2,4-diacetoxy-3,3-dimethylbutyl)aminopropyl)tetrahydro-1,4-diazepine], 62.6%.

The same test, now with this note: in square brackets behind the % inhibition, range in parentheses not explained, read-out: ACAT inhibition [IC50 × 10^-7 M].
A word on the IC50: it is the concentration at which inhibition is half-maximal. As for `CCCCCCCC/C=C\CCCCCCCC(=O)N[C@H]1CCCC[C@@H]1NC(=O)CCNC(=O)[C@H](OC(C)=O)C(C)(C)COC(C)=O` [Example 71], the half-inhibitory concentration (IC50) came to 198 nM.
Still for that read-out and setting: with `CCCCCCCC/C=C\CCCCCCCC(=O)N[C@H]1CCCC[C@@H]1OC(=O)CCNC(=O)C1OC(C)(C)OCC1(C)C` (stereo partly drawn) [Example 78, (1S,2S)-2-(Oleoylamino)cyclohexane-1-yl 3-[N-(2,2,5,5-tetramethyl-1,3-dioxane-4-carbonyl)amino]propionate] the figure was 40.1 nM; with `CCCCCCCC/C=C\CCCCCCCC(=O)NCCCCNC(=O)CCNC(=O)C1OC(C)(C)OCC1(C)C` (stereo not drawn) [Example 37, N-(4-Oleoylaminobutyl)-3-[N-(2,2,5,5-tetramethyl-1,3-dioxane-4-carbonyl)amino]propanamide], 286 nM; with `CCCCCCCC/C=C\CCCCCCCC(=O)NCCNC(=O)CCNC(=O)C1OC(C)(C)OCC1(C)C` (stereo not drawn) [Example 33], 299 nM.
`CCCCCCCC/C=C\CCCCCCCC(=O)NCCCOC(=O)CCNC(=O)C1OC(C)(C)OCC1(C)C` (stereo not drawn) [Example 47, 3-(N-oleoylamino]propyl 3-[N-(2,2,5,5-tetramethyl-1,3-dioxane-4-carbonyl)amino]propionate]: the IC50 worked out at 250 nM.
The same measure, in the same setting: with `CCCCCCCC/C=C\CCCCCCCC(=O)NCCCCCCOC(=O)CCNC(=O)C1OC(C)(C)OCC1(C)C` (stereo not drawn) [Example 67] the figure was 389 nM.
Still for that read-out and setting: with `CCCCCCCC/C=C\CCCCCCCC(=O)N[C@@H]1CCCC[C@H]1OC(=O)CCNC(=O)C1OC(C)(C)OCC1(C)C` (stereo partly drawn) [Example 77, (1R,2R)-2-(Oleoylamino)cyclohexane-1-yl 3-[N-(2,2,5,5-tetramethyl-1,3-dioxane-4-carbonyl)amino]propionate] the figure was 210 nM; with `CCCCCCCC/C=C\CCCCCCCC(=O)Nc1ccccc1NC(=O)CCNC(=O)C1OC(C)(C)OCC1(C)C` (stereo not drawn) [Example 1, N-[2-(Oleoylamino)phenyl]-3-[N-(2,2,5,5-tetramethyl-1,3-dioxane-4-carbonyl)amino]propanamide], 295 nM; with `CCCCCCCC/C=C\CCCCCCCC(=O)NCCOC(=O)CCNC(=O)C1OC(C)(C)OCC1(C)C` (stereo not drawn) [Example 44, 2-(N-Oleoylamino)ethyl 3-[N-(2,2,5,5-tetramethyl-1,3-dioxane-4-carbonyl)amino]propionate], 686 nM.
As to `CCCCC/C=C\C/C=C\CCCCCCCC(=O)N[C@H]1CCCC[C@@H]1OC(=O)CCNC(=O)C1OC(C)(C)OCC1(C)C` (stereo partly drawn) [Example 80, (1S,2S)-2-(Linoleoylamino)cyclohexane-1-yl 3-[N-(2,2,5,5-tetramethyl-1,3-dioxane-4-carbonyl)amino]propionate], the IC50 was found to be 108 nM.
On the same count and under the same terms, as for `CCCCCCCC/C=C\CCCCCCCC(=O)N[C@H]1CCCC[C@@H]1NC(=O)CCNC(=O)C1OC(C)(C)OCC1(C)C` (stereo partly drawn) [Example 70, N-[(1S,2S)-2-(Oleoylamino)cyclohexane]-3-[N-(2,2,5,5-tetramethyl-1,3-dioxane-4-carbonyl)amino]propanamide], the figure is 162 nM; as for `CCCCCCCC/C=C\CCCCCCCC(=O)NCCCNC(=O)CCNC(=O)C1OC(C)(C)OCC1(C)C` (stereo not drawn) [Example 34], 385 nM; as for `CCCCCCCC/C=C\CCCCCCCC(=O)NCCCCCOC(=O)CCNC(=O)C1OC(C)(C)OCC1(C)C` (stereo not drawn) [Example 66], 355 nM.
On the same count and under the same terms, with `CCCCCCCC/C=C\CCCCCCCC(=O)N[C@H]1CCCC[C@@H]1NC(=O)CCNC(=O)[C@H](O)C(C)(C)CO` [Example 74, N-[(1S,2S)-2-(Oleoylamino)cyclohexane-1-yl]-3-[N-[(2R)-2,4-dihydroxy-3,3-dimethyl-1-oxobutyl]amino]propanamide] the figure was 155 nM.
Still for that read-out and setting: as for `CCCCCCCC/C=C\CCCCCCCC(=O)Nc1ccccc1NC(=O)CCNC(=O)C(OC(C)=O)C(C)(C)COC(C)=O` (stereo not drawn) [Example 2, N-[2-(Oleoylamino)phenyl]-3-[N-(2,4-diacetoxy-3,3-dimethyl-1-oxobutyl)amino]propanamide], the figure is 274 nM.
